Laboratory results as given in US10954269B2, “Anti-inflammatory tripeptides” (Dr. August Wolff Gmbh & Co. KG Arzneimittel, priority 2013, dated 2021).

How the values were obtained:
Conditions in all cases: substance 10^−9M
[1] = system: human keratinocyte cell line (HaCaT); assay: Cytokine secretion on protein level in activated human keratinocyte cell line HaCaT (13-plex FACS / Luminex, supernatant); type: cell-based
Summary of the method: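 First, T-cells are isolated from healthy donors' blood. Next, they and HaCaT keratinocytes are activated for 48 h with PMA/Ionomycin or IFN-γ in the presence of tripeptides. Finally, secreted cytokines are quantified in supernatants by 13-plex FACS at 48 and 72 h.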

primary murine T-cells = assay: Cytokine secretion on protein level in activated primary murine T-cells (13-plex FACS / Luminex, supernatant); type: cell-based, C57BL/6 mice
Summary of the method: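 T-cells from secondary lymphatic organs of naïve C57BL/6 mice, stimulated with PMA/Ionomycin or IFN-γ; supernatant cytokines measured by 13-plex FACS 48 h and 72 h after stimulation. In another run, PMA/Ionomycin-stimulated cells received compounds at 10^−7, 10^−9 and 10^−11 M, with IFN-γ, IL-17 and IL-10 measured by Luminex.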

primary human T-cells = assay: Cytokine secretion on protein level in activated primary human T-cells (13-plex FACS / Luminex, supernatant); type: cell-based
Summary of the method: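 Primary T-cells from peripheral blood of healthy volunteers, or HaCaT cells, were activated with PMA/Ionomycin or IFN-γ for 48 h and treated with tripeptides. Supernatants were collected 48 h and 72 h after stimulation and cytokines (IL-1, IL-2, IL-6, IL-12p70, IL-17, IFN-γ, TNF-α) were measured by 13-plex FACS.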

[2] = HaCaT stimulated with PMA/Ionomycin
[3] = primary murine T-cells stimulated with IFN-γ
[4] = primary murine T-cells stimulated with PBS
[5] = primary murine T-cells stimulated with PMA/Ionomycin
[6] = primary human T-cells stimulated with IFN-γ
[7] = primary human T-cells stimulated with PBS
[8] = primary human T-cells stimulated with PMA/Ionomycin

In the case of H-(L)-Lys-(L)-Pro-Alb-NH2 [Example 10], the IL-1 cytokine concentration ([1]; HaCaT stimulated with IFN-γ) is reported as 0 pg/mL, the IL-2 cytokine concentration ([1]; HaCaT stimulated with IFN-γ) is reported as 0 pg/mL and the IL-4 cytokine concentration ([1]; HaCaT stimulated with IFN-γ) is reported as 183.12 pg/mL. The IL-5 cytokine concentration ([1]; HaCaT stimulated with IFN-γ) was 88.64 pg/mL, the IL-6 cytokine concentration ([1]; HaCaT stimulated with IFN-γ) was 346.73 pg/mL and the IL-9 cytokine concentration ([1]; HaCaT stimulated with IFN-γ) was 0 pg/mL. For the same substance, the IL-10 cytokine concentration ([1]; HaCaT stimulated with IFN-γ) was 0 pg/mL, the IL-12p70 cytokine concentration ([1]; HaCaT stimulated with IFN-γ) was 0 pg/mL and the IL-13 cytokine concentration ([1]; HaCaT stimulated with IFN-γ) was 1904.09 pg/mL. The IL-17 cytokine concentration ([1]; HaCaT stimulated with IFN-γ) was 189.1 pg/mL, the IL-22 cytokine concentration ([1]; HaCaT stimulated with IFN-γ) was 0 pg/mL and the TNF-α cytokine concentration ([1]; HaCaT stimulated with IFN-γ) was 0 pg/mL. It also gave an IFN-γ cytokine concentration ([1]; HaCaT stimulated with PBS) of 469.17 pg/mL, an IL-1 cytokine concentration ([1]; HaCaT stimulated with PBS) of 170.16 pg/mL and an IL-2 cytokine concentration ([1]; HaCaT stimulated with PBS) of 0 pg/mL. The IL-4 cytokine concentration ([1]; HaCaT stimulated with PBS) was 218.04 pg/mL, the IL-5 cytokine concentration ([1]; HaCaT stimulated with PBS) was 0 pg/mL and the IL-6 cytokine concentration ([1]; HaCaT stimulated with PBS) was 125.38 pg/mL. The IL-9 cytokine concentration ([1]; HaCaT stimulated with PBS) was 5.28 pg/mL, the IL-10 cytokine concentration ([1]; HaCaT stimulated with PBS) was 0 pg/mL and the IL-12p70 cytokine concentration ([1]; HaCaT stimulated with PBS) was 0 pg/mL. It also gave an IL-13 cytokine concentration ([1]; HaCaT stimulated with PBS) of 1864.02 pg/mL, an IL-17 cytokine concentration ([1]; HaCaT stimulated with PBS) of 230.84 pg/mL and an IL-22 cytokine concentration ([1]; HaCaT stimulated with PBS) of 0 pg/mL. It also gave a TNF-α cytokine concentration ([1]; HaCaT stimulated with PBS) of 0 pg/mL, an IFN-γ cytokine concentration [1, 2] of 327.78 pg/mL and an IL-1 cytokine concentration [1, 2] of 251.13 pg/mL. For the same substance, the IL-2 cytokine concentration [1, 2] was 189.17 pg/mL, the IL-4 cytokine concentration [1, 2] was 0 pg/mL and the IL-5 cytokine concentration [1, 2] was 0 pg/mL. The IL-6 cytokine concentration [1, 2] was 315.82 pg/mL, the IL-9 cytokine concentration [1, 2] was 14.67 pg/mL and the IL-10 cytokine concentration [1, 2] was 34.84 pg/mL. It also gave an IL-12p70 cytokine concentration [1, 2] of 0 pg/mL, an IL-13 cytokine concentration [1, 2] of 0 pg/mL and an IL-17 cytokine concentration [1, 2] of 45.41 pg/mL. It also gave an IL-22 cytokine concentration [1, 2] of 0 pg/mL, a TNF-α cytokine concentration [1, 2] of 53.51 pg/mL and an IL-1 cytokine concentration (primary murine T-cells; [3]) of 77.81 pg/mL. It also gave an IL-2 cytokine concentration (primary murine T-cells; [3]) of 93.19 pg/mL, an IL-4 cytokine concentration (primary murine T-cells; [3]) of 81.11 pg/mL and an IL-5 cytokine concentration (primary murine T-cells; [3]) of 238.38 pg/mL. For the same substance, the IL-6 cytokine concentration (primary murine T-cells; [3]) was 139.83 pg/mL, the IL-10 cytokine concentration (primary murine T-cells; [3]) was 2024.06 pg/mL and the IL-13 cytokine concentration (primary murine T-cells; [3]) was 0 pg/mL. The IL-17 cytokine concentration (primary murine T-cells; [3]) was 0 pg/mL, the IL-21 cytokine concentration (primary murine T-cells; [3]) was 0 pg/mL and the IL-22 cytokine concentration (primary murine T-cells; [3]) was 57.35 pg/mL. It also gave an IL-27 cytokine concentration (primary murine T-cells; [3]) of 1.29 pg/mL, a TNF-α cytokine concentration (primary murine T-cells; [3]) of 32.42 pg/mL and an IFN-γ cytokine concentration (primary murine T-cells; [4]) of 0 pg/mL. The IL-1 cytokine concentration (primary murine T-cells; [4]) was 66.84 pg/mL, the IL-2 cytokine concentration (primary murine T-cells; [4]) was 132.67 pg/mL and the IL-4 cytokine concentration (primary murine T-cells; [4]) was 65.63 pg/mL. For the same substance, the IL-5 cytokine concentration (primary murine T-cells; [4]) was 229.8 pg/mL, the IL-6 cytokine concentration (primary murine T-cells; [4]) was 177.95 pg/mL and the IL-10 cytokine concentration (primary murine T-cells; [4]) was 923.65 pg/mL. The IL-13 cytokine concentration (primary murine T-cells; [4]) was 0 pg/mL, the IL-17 cytokine concentration (primary murine T-cells; [4]) was 0 pg/mL and the IL-21 cytokine concentration (primary murine T-cells; [4]) was 0 pg/mL. It also gave an IL-22 cytokine concentration (primary murine T-cells; [4]) of 71.47 pg/mL, an IL-27 cytokine concentration (primary murine T-cells; [4]) of 0 pg/mL and a TNF-α cytokine concentration (primary murine T-cells; [4]) of 77.08 pg/mL. The IFN-γ cytokine concentration (primary murine T-cells; [5]) was 2377.98 pg/mL, the IL-1 cytokine concentration (primary murine T-cells; [5]) was 173.61 pg/mL and the IL-2 cytokine concentration (primary murine T-cells; [5]) was 179.75 pg/mL. The IL-4 cytokine concentration (primary murine T-cells; [5]) was 56.84 pg/mL, the IL-5 cytokine concentration (primary murine T-cells; [5]) was 267.52 pg/mL and the IL-6 cytokine concentration (primary murine T-cells; [5]) was 164.16 pg/mL. For the same substance, the IL-10 cytokine concentration (primary murine T-cells; [5]) was 1182.68 pg/mL, the IL-13 cytokine concentration (primary murine T-cells; [5]) was 0 pg/mL and the IL-17 cytokine concentration (primary murine T-cells; [5]) was 86.12 pg/mL. The IL-21 cytokine concentration (primary murine T-cells; [5]) was 0 pg/mL, the IL-22 cytokine concentration (primary murine T-cells; [5]) was 44.47 pg/mL and the IL-27 cytokine concentration (primary murine T-cells; [5]) was 8.48 pg/mL. It also gave a TNF-α cytokine concentration (primary murine T-cells; [5]) of 33.37 pg/mL, an IL-1 cytokine concentration (primary human T-cells; [6]) of 139.49 pg/mL and an IL-2 cytokine concentration (primary human T-cells; [6]) of 231.83 pg/mL. For the same substance, the IL-4 cytokine concentration (primary human T-cells; [6]) was 160.97 pg/mL, the IL-5 cytokine concentration (primary human T-cells; [6]) was 0 pg/mL and the IL-6 cytokine concentration (primary human T-cells; [6]) was 105.21 pg/mL. For the same substance, the IL-9 cytokine concentration (primary human T-cells; [6]) was 0 pg/mL, the IL-10 cytokine concentration (primary human T-cells; [6]) was 0 pg/mL and the IL-12p70 cytokine concentration (primary human T-cells; [6]) was 0 pg/mL. It also gave an IL-13 cytokine concentration (primary human T-cells; [6]) of 162.81 pg/mL, an IL-17 cytokine concentration (primary human T-cells; [6]) of 250.1 pg/mL and an IL-22 cytokine concentration (primary human T-cells; [6]) of 0 pg/mL. It also gave a TNF-α cytokine concentration (primary human T-cells; [6]) of 0 pg/mL, an IL-1 cytokine concentration (primary human T-cells; [7]) of 0 pg/mL and an IL-2 cytokine concentration (primary human T-cells; [7]) of 0 pg/mL. For the same substance, the IL-4 cytokine concentration (primary human T-cells; [7]) was 0 pg/mL, the IL-5 cytokine concentration (primary human T-cells; [7]) was 0 pg/mL and the IL-6 cytokine concentration (primary human T-cells; [7]) was 216.7 pg/mL. The IL-9 cytokine concentration (primary human T-cells; [7]) was 23.18 pg/mL, the IL-10 cytokine concentration (primary human T-cells; [7]) was 48.86 pg/mL and the IL-12p70 cytokine concentration (primary human T-cells; [7]) was 0 pg/mL. For the same substance, the IL-13 cytokine concentration (primary human T-cells; [7]) was 0 pg/mL, the IL-17 cytokine concentration (primary human T-cells; [7]) was 0 pg/mL and the IL-22 cytokine concentration (primary human T-cells; [7]) was 0 pg/mL. For the same substance, the INF-α cytokine concentration (primary human T-cells; [7]) was 0 pg/mL, the TNF-α cytokine concentration (primary human T-cells; [7]) was 21.65 pg/mL and the IL-1 cytokine concentration (primary human T-cells; [8]) was 878.53 pg/mL. For the same substance, the IL-2 cytokine concentration (primary human T-cells; [8]) was 5107.74 pg/mL, the IL-4 cytokine concentration (primary human T-cells; [8]) was 179.62 pg/mL and the IL-5 cytokine concentration (primary human T-cells; [8]) was 416.25 pg/mL. For the same substance, the IL-6 cytokine concentration (primary human T-cells; [8]) was 1255.58 pg/mL, the IL-9 cytokine concentration (primary human T-cells; [8]) was 461.98 pg/mL and the IL-10 cytokine concentration (primary human T-cells; [8]) was 729.43 pg/mL. It also gave an IL-12p70 cytokine concentration (primary human T-cells; [8]) of 0 pg/mL, an IL-13 cytokine concentration (primary human T-cells; [8]) of 1183.46 pg/mL and an IL-17 cytokine concentration (primary human T-cells; [8]) of 2234.39 pg/mL. The IL-22 cytokine concentration (primary human T-cells; [8]) was 0 pg/mL, the INF-α cytokine concentration (primary human T-cells; [8]) was 11538.53 pg/mL and the TNF-α cytokine concentration (primary human T-cells; [8]) was 4132.03 pg/mL.
